Laboratory results from patent publication US20230363954A1, “METHOD FOR MAKING AN ABSORBENT ARTICLE AND ABSORBENT ARTICLE” (The Procter & Gamble Company, priority 2022, published 2023).
Read-outs that look alike come from different tables or passages of the source.

Target: T1, Jack Bean Urease (Canavalia ensiformis, UniProt P07374)
T1 construct: purchased Millipore Sigma U1500
Assay type: biochemical
Conditions: for Urease inhibition (in words): 0.1 g in synthetic urine with urease
Protocol: To test the efficiency of different Green Tea Extracts, three different samples were tested: • Sample 1′: pure EGCG: Cas. […] 84650-60-2, EC no. […] The test procedure per sample and for a reference without Green Tea Extract was the following, all steps were performed at ambient lab temperature (23±1° C.) and atmospheric pressure:
Synthetic Urine is prepared by dissolving 2% w/w urea, 0.9% w/w sodium chloride, 0.11% w/w magnesium sulfate monohydrate, 0.079% w/w calcium chloride monohydrate in deionized water. Urease stock solution (23.5 U/ml) is made by dissolving Jack Bean Urease (Catalog number U1500, Millipore Sigma, St. Louis, MO, USA, or equivalent) in deionized water.
67.5 ml of Synthetic urine were added to a beaker and the pH of the Synthetic urine (Urine pH) was determined analogously to the Urease Activity test method described above (Urine pH).
0.1 g of the corresponding Green Tea Extract—except for the reference sample—were added to the beaker and the solution stirred for 15 min. Afterwards the pH of the solution is determined.
7.5 ml of the Urease stock solution were added and the pH was monitored, while the stirring of the solution was maintained.
From the values, the difference in pH mediated by Urease was calculated from the difference of the pH of the Synthetic urine and the final pH determined after addition of the Urease stock.

T1 sequence (P07374 whole entry, looked up): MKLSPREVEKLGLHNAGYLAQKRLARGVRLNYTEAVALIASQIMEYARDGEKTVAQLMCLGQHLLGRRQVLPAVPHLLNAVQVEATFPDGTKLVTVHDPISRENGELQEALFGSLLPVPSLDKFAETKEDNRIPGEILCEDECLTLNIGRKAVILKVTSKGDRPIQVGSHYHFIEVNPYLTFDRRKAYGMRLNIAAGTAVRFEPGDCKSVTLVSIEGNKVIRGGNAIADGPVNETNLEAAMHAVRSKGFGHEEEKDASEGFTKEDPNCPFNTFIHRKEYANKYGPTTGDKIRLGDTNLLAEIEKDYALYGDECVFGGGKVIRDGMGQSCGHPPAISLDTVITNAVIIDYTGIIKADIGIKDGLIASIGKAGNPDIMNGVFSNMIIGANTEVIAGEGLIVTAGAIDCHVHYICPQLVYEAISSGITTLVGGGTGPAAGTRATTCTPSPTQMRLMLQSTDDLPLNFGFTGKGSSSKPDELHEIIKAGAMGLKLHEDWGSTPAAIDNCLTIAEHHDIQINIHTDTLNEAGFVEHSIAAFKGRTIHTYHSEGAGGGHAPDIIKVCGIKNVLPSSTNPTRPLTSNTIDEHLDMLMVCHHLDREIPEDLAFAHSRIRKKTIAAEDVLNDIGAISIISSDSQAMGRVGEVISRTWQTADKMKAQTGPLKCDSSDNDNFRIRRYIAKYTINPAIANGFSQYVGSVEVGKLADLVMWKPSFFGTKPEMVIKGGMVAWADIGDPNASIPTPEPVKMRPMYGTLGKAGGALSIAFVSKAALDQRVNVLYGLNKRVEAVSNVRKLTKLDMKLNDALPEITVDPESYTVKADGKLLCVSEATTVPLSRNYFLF

With `O=C(O[C@@H]1Cc2c(O)cc(O)cc2O[C@@H]1c1cc(O)c(O)c(O)c1)c1cc(O)c(O)c(O)c1` [Sample 1′, Epigallocatechin gallate] the “Green Tea pH” value (0.1 g in 67.5 ml Synthetic urine, stirred 15 min, before urease addition) was 5.7, the “Urease inhibition (in words)” value was “inhibit Urease” and the “Urease inhibition (in words)” value (listed as EGCG) was “less efficient in its pure form”. For the same compound, the “End pH” value (after adding 7.5 ml Urease stock solution (23.5 U/ml), pH stabilized (typically 15 to 30 min)) was 7.7 and the pH difference (final pH minus pH of the Synthetic urine) was 1.2.
